Data from patent publication US20250170200A1, “COMPOSITION COMPRISING COFFEE EXTRACT FOR SUPPRESSING POSTPRANDIAL BLOOD SUGAR RISE” (PYXIS INC., priority 2022, published 2025).
Entries after “also recorded” stand apart in the source; their conditions may differ.

What was measured:
[1] = system: rat intestinal α-glucosidase; experiment: Rat intestinal α-glucosidase inhibition assay; assay type: biochemical; conditions: in words, FIG. 1 and FIG. 2
Description: • Enzyme: rat small intestinal acetone powder • Substrate: PNP-glycoside (pNPG, p-Nitrophenyl α-Dglucopyranoside) 150 mg of rat small intestine acetone powder was added to 9 ml of 0.1 M sodium phosphate buffer (pH 6.9; including 0.9% sodium chloride), ultrasonicated 12 times in an ice water bath for 30 seconds, and then centrifuged at 13,000 rpm and 4° C. for 3 minutes. After centrifugation, a supernatant was collected and used in rat intestinal α-glucosidase inhibition assay. 100 μl of a rat α-glucosidase solution and 50 μl of a sample solution were added and reacted at 37° C. for 10 minutes, and then 50 μl of 5 mM pNPG solution was added thereto to react the mixture at 37° C. for 10 minutes. After completion of the reaction, inhibitory activity against rat intestinal α-glucosidase was analyzed by measuring absorbance at 405 nm by using an ELISA reader. The sample solution used in the experiment was prepared as follows. The hot-water extract was centrifuged (8000 rpm, 30 min), the supernatant was filtered through a filter paper (90 mm/Whatman™), and the filtrate was concentrated to 60 to 150 ml and freeze-dried to produce extract powder. 100 mg of powder was mixed with 1 L of water to prepare a sample solution.

[2] = biological target: T1, porcine pancreatic α-amylase (Sus scrofa, UniProt P00690); experiment: Porcine pancreatic α-amylase inhibition assay; assay type: biochemical; conditions: at a concentration of 25 mM/ml, FIG. 4
T1 sequence (P00690 16-511): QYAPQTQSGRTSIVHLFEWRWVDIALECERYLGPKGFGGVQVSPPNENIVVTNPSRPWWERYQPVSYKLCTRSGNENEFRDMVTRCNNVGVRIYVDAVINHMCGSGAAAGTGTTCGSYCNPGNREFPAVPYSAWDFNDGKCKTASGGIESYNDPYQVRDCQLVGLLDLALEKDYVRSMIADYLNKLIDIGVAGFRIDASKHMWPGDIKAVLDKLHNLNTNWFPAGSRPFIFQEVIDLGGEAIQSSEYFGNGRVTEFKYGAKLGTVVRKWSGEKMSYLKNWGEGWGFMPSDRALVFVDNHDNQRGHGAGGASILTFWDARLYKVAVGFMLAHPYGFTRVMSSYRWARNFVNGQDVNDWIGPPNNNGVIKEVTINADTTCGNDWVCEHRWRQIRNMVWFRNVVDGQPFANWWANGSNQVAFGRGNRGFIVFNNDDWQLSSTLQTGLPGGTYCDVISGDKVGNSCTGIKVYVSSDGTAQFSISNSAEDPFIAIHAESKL
Description: • Enzyme: porcine pancreatic α-amylase • Substrate: 1% starch solution in 0.02 M sodium phosphate buffer (pH 6.9) • Coloring Reagent: 3,5-dinitrosalicylic acid solution (DNS) in 2 M NaOH with 30% sodium potassium tartrate tetrahydrate
200 μl of a sample solution was added to 300 μl of a porcine pancreatic α-amylase solution having a concentration of 10 U, which is dissolved in a 0.02 M sodium phosphate buffer (pH 6.9; including 0.006 M sodium chloride), and incubated at 25° C. for 10 minutes.
500 μl of a 1% starch solution, which was pre-cultured at 25° C. for 10 minutes, was added to the solution, and the mixture was reacted at 25° C. for 10 minutes.
1 ml of a 1% DNS solution dissolved in 30% Rochelle salt was added and treated in boiling water bath for 5 minutes and cooled to room temperature, and 10 ml of distilled water was added to the resultant.
The absorbance of a reaction solution of the DNS solution and sugar decomposed from the substrate by α-amylase was measured at 540 nm by using an ELISA reader.

SD rat [3] = experiment: Postprandial blood sugar rise suppression after sucrose administration; assay type: in vivo; conditions: for postprandial blood sugar: sucrose
Description: (§1) An SD rat, a 5-week-old male, was purchased from RAONBIO, bred in an animal breeding room, and only healthy animals at 6 weeks of age were selected and used in the experiment. After fasting the experimental animals for 24 hours or longer before the experiment, the coffee extract was administered at a concentration of 0.5 g/kg to 2 g/kg body weight of sucrose or starch, and the sample was orally administered using a zonde for oral administration. The administration group was 6 groups, 6 per each group. The blood was collected from the rat tail vein at 30, 60 and 120 minutes after oral administration, and changes in blood sugar concentration in the venous blood were measured using a blood sugar meter ([…]).

SD rat [4] = experiment: Postprandial blood sugar rise suppression after starch administration; assay type: in vivo
Description: as §1

[5] = 0.1 g/kg of chlorogenic acid, 30 minutes
[6] = 0.1 g/kg of chlorogenic acid, 60 minutes (first value of 'from 30 minutes to 2 hours')
[7] = 0.1 g/kg of chlorogenic acid, 120 minutes (2 hours)
[8] = 0.5 g/kg of chlorogenic acid, 30 minutes
[9] = 0.5 g/kg of chlorogenic acid, 60 minutes (first value of 'from 30 minutes to 2 hours')
[10] = 0.5 g/kg of chlorogenic acid, 120 minutes (2 hours)

| Structure (SMILES) | inhibitory activity against rat intestinal α-glucosidase [1] | inhibitory activity against α-amylase [2] | effect on postprandial blood sugar rise after sucrose intake (SD rat [3]; in words) | postprandial blood sugar (SD rat [3]; [5]) [mg/dL] | postprandial blood sugar (SD rat [3]; [6]) [mg/dL] | postprandial blood sugar (SD rat [3]; [7]) [mg/dL] | postprandial blood sugar (SD rat [3]; [8]) [mg/dL] | postprandial blood sugar (SD rat [3]; [9]) [mg/dL] | postprandial blood sugar (SD rat [3]; [10]) [mg/dL] | blood sugar (SD rat [4]; [5]) [mg/dL] | blood sugar (SD rat [4]; [6]) [mg/dL] | blood sugar (SD rat [4]; [7]) [mg/dL] | blood sugar (SD rat [4]; [8]) [mg/dL] | blood sugar (SD rat [4]; [9]) [mg/dL] | blood sugar (SD rat [4]; [10]) [mg/dL] |
| --- | --- | --- | --- | --- | --- | --- | --- | --- | --- | --- | --- | --- | --- | --- | --- |
| O=C(O)/C=C/c1ccc(O)c(O)c1 [caffeic acid] | increases in dependence on the concentration | – | – | – | – | – | – | – | – | – | – | – | – | – | – |
| O=C(/C=C/c1ccc(O)c(O)c1)O[C@@H]1C[C@](O)(C(=O)O)C[C@@H](O)[C@H]1O [chlorogenic acid] | increases in dependence on the concentration; also recorded: the most excellent | excellent inhibitory activity | effect of suppressing postprandial blood sugar rise | 184.93 ± 8.24 | 174.00 ± 16.67 | 147.38 ± 10.86 | 131.29 ± 14.47 | 130.64 ± 10.90 | 120.69 ± 13.77 | 239.00 ± 25.86 | 137.33 ± 10.46 | 126.08 ± 10.75 | 225.17 ± 18.37 | 137.23 ± 9.58 | 126.46 ± 12.1 |
| O=C(O)[C@]1(O)C[C@@H](O)[C@@H](O)[C@H](O)C1 [quinic acid] | increases in dependence on the concentration | excellent inhibitory activity | – | – | – | – | – | – | – | – | – | – | – | – | – |
